Reference: publication PMC5563081, “Modulating Protein-Protein Interactions of the Mitotic Polo-like Kinases to Target Mutant KRAS” (Cell Chemical Biology, 2017)
Converted amounts (≈) assume the structure as drawn. “And” between values parts separate entries of the source, which are not always exact repeats. Identical values can stand only once. Like-named read-outs stand apart in the source and are kept apart here.

How the values were obtained:
Solubility in 5% DMSO = type: physicochemical; conditions: aqueous with cosolvent or surfactant or cyclodextrin, read-out: soluble at up to
[1] = test system: kinase catalytic domains of PLK1, PLK2, PLK3, PLK4 and 51 other protein kinases; experiment: DiscoverX KINOMEscan panel of 55 kinases (statements in words); type: binding, human; conditions: cut-off <35% of control
Experimental: A panel of 55 proteins (comprising 51 human kinases structurally or functionally related to the PLKs, plus the kinase catalytic domains of PLK1, PLK2, PLK3 and PLK4) were selected for testing by DiscoverX using the KINOMEscan assay platform. Compounds were supplied as 40x DMSO stocks and were tested at a final concentration of 50μM for Poloppin and 5μM for Poloppin-II. Binding interactions were reported as percentage of control where lower numbers indicate stronger binding. A cut-off of <35% was applied to report significant binding.

PBD domain of human PLK2 = biological target: T1, PBD domain of human PLK2 (Homo sapiens, UniProt Q9NYY3); experiment: Fluorescence polarisation (FP) assay, PLK2 PBD; type: binding
T1 construct: For FP assays using PLK2 PBD (aa356-681), the same procedure was applied; GST (N, cleaved yes); made in house; host or cells: E. coli C41
T1 sequence (Q9NYY3 356-681): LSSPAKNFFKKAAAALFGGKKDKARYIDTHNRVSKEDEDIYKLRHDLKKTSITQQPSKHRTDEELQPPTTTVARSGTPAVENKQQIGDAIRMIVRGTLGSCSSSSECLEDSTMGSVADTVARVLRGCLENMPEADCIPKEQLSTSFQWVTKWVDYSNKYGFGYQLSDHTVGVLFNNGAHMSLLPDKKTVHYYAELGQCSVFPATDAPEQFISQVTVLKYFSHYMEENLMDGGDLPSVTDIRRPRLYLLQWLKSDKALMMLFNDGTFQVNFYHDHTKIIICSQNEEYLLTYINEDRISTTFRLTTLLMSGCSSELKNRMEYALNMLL
Experimental: Final concentrations of assay components used in binding assays were as follows: TAMRA-labelled consensus PLK1 PBD binding phosphopeptide, 5-TAMRA-MAGPMQS(pThreonine)PLMGAKK-acid 10nM; PLK1 PBD (aa345-603) 84nM (2.5ng/μl). Assays were carried out in PBS (pH 7.4) plus 0.03% tween. DMSO controls were run alongside all experimental compounds and % inhibition normalised to these controls. Compounds were titrated 2 fold from a top concentration of 250μM giving a maximum final concentration of DMSO in the assay of 0.25%; however the assay can tolerate DMSO up to 5%. Compound and PBD protein were incubated together at 22°C for 1 hour prior to addition of the TAMRA labelled binding phosphopeptide. The total assay volume per well was 45μl. All experiments were performed in NBS black 384-well microtiter plates (Corning). Fluorescence Polarisation (FP) was read using a BMG PheraStar plate reader with a 540/590/590nm FP module and unbound 10nm TAMRA-labelled peptide set to a FP value of 35mP.
For FP assays using PLK2 PBD (aa356-681), the same procedure was applied except that TAMRA-MAGPMQTS(pThreonine)PKNGAKK was used as the consensus binding phosphopeptide.

[2] = test system: murine pancreatic organoids KRAS WT p53 MUT; experiment: Viability of pancreatic organoids (CellTitre Glo 3D), KRAS WT; type: cell-based; conditions: Mus musculus, read-out: Mean GI50
Experimental: (§1) Organoid cultures were prepared from the pancreas of LSL-Trp53^R172H/+, Pdx-1-Cre (for Kras WT organoids) or LSL-Trp53^R172H/+, LSL-Kras^G12D/+, Pdx-1-Cre (for Kras^G12D organoids KPC3760 and KPC26684) strains ([Hingorani et al., 2005]). Pancreatic ducts were manually picked after tissue mincing and overnight enzymatic digestion with 0.012% (w/v) collagenase XI (Sigma) and 0.012% (w/v) dispase (GIBCO) in DMEM media containing 1% FBS (GIBCO), before seeding in growth-factor-reduced (GFR) Matrigel (BD) ([Boj et al., 2015]).
(§2) Pancreatic organoids were extracted and cultured as detailed above ([Boj et al., 2015]). In brief, pancreatic organoids were seeded at 600 cells per well in a 96 well plate and allowed to grow for 7 days with media replenishment on the 3rd day. Full-grown organoids were then treated with compounds for 72h and viability determined using CellTitre Glo 3D assay (Promega). For viability assays with c-MET siRNA, cells were reverse transfected in a 6 cm dish using Dharmafect 1 (GE Dharmacon) per manufacturer’s instructions. On the following day, cells were trypsinised and plated onto 96 well plates or 6 well plates. The 96 well plates were treated with a dose range of compounds or DMSO, and viability was determined via SRB colorimetric assay. Cells in the 6 well plates were collected at the end of experiment to corroborate knockdown of c-MET by Western blotting.

[3] = test system: murine pancreatic organoids KRAS MUT p53 MUT; experiment: Viability of pancreatic organoids (CellTitre Glo 3D), KRAS G12D; type: cell-based; conditions: Mus musculus
Experimental: as §1, §2

CN(C)CCNC(=O)c1ccc(-c2ccc(-c3ccc(Cl)cc3)n2-c2ccccc2C(F)(F)F)cc1 [Poloppin-II]
solubility (Solubility in 5% DMSO): ~100 µM (≈ 51.2 µg/mL)
binding to the kinase catalytic domains of PLK1–4, or to 51 other related kinases ([1]; Poloppin-II at 5 μM): no binding
IC50 (PBD domain of human PLK2; read-out: IC50, binding of TAMRA-labelled phosphopeptide to PLK2 PBD): 105 µM
GI50 ([2]; organoids KRAS WT p53 MUT, n=2): 102 µM
GI50 ([3]; organoids KRAS MUT p53 MUT #2, n=2, read-out: Mean GI50): 22.9 µM

O=C(O)CCc1ccc(-c2ccc(Br)cc2)n1-c1ccccc1C(F)(F)F [Poloppin]
solubility (Solubility in 5% DMSO): ≤ 1000 µM
binding to 51 other protein kinases ([1]; Poloppin at 50μM): No significant binding
binding to the kinase catalytic domains of PLK1, PLK2, PLK3, PLK4 ([1]; Poloppin at 50μM): does not bind
selectivity for PLK1-PBD over PLK2-PBD (PBD domain of human PLK2): ~3 fold
IC50 (PBD domain of human PLK2; IC50, binding of TAMRA-labelled phosphopeptide to PLK2 PBD): 88.3 µM and 88 µM
GI50 [2]: 119 µM
GI50 ([3]; read-out: Mean GI50, organoids KRAS MUT p53 MUT #1, n=2): 22.9 µM
GI50 ([3]; read-out: Mean GI50, organoids KRAS MUT p53 MUT #2, n=2): 28.4 µM
